In US8354434B2, “Cyclourea compounds as calcium channel blockers” (Purdue Pharma L.P., priority 2006, dated 2013):
pIC50: −log10 of the molar value.

Experiments:
[1] = target: T1, N-type calcium channel (NTCC) (Homo sapiens, UniProt Q00975); assay: FLIPR calcium mobilization assay for N-type calcium channel; type: cell-based; conditions: calcium mobilization in vitro assay, differentiated IMR32 cells
T1 construct: endogenous in cells; host or cells: IMR32 cells (ATCC), differentiated 8 days with dibutyryl cAMP and bromodeoxyuridine
T1 sequence (Q00975 whole entry): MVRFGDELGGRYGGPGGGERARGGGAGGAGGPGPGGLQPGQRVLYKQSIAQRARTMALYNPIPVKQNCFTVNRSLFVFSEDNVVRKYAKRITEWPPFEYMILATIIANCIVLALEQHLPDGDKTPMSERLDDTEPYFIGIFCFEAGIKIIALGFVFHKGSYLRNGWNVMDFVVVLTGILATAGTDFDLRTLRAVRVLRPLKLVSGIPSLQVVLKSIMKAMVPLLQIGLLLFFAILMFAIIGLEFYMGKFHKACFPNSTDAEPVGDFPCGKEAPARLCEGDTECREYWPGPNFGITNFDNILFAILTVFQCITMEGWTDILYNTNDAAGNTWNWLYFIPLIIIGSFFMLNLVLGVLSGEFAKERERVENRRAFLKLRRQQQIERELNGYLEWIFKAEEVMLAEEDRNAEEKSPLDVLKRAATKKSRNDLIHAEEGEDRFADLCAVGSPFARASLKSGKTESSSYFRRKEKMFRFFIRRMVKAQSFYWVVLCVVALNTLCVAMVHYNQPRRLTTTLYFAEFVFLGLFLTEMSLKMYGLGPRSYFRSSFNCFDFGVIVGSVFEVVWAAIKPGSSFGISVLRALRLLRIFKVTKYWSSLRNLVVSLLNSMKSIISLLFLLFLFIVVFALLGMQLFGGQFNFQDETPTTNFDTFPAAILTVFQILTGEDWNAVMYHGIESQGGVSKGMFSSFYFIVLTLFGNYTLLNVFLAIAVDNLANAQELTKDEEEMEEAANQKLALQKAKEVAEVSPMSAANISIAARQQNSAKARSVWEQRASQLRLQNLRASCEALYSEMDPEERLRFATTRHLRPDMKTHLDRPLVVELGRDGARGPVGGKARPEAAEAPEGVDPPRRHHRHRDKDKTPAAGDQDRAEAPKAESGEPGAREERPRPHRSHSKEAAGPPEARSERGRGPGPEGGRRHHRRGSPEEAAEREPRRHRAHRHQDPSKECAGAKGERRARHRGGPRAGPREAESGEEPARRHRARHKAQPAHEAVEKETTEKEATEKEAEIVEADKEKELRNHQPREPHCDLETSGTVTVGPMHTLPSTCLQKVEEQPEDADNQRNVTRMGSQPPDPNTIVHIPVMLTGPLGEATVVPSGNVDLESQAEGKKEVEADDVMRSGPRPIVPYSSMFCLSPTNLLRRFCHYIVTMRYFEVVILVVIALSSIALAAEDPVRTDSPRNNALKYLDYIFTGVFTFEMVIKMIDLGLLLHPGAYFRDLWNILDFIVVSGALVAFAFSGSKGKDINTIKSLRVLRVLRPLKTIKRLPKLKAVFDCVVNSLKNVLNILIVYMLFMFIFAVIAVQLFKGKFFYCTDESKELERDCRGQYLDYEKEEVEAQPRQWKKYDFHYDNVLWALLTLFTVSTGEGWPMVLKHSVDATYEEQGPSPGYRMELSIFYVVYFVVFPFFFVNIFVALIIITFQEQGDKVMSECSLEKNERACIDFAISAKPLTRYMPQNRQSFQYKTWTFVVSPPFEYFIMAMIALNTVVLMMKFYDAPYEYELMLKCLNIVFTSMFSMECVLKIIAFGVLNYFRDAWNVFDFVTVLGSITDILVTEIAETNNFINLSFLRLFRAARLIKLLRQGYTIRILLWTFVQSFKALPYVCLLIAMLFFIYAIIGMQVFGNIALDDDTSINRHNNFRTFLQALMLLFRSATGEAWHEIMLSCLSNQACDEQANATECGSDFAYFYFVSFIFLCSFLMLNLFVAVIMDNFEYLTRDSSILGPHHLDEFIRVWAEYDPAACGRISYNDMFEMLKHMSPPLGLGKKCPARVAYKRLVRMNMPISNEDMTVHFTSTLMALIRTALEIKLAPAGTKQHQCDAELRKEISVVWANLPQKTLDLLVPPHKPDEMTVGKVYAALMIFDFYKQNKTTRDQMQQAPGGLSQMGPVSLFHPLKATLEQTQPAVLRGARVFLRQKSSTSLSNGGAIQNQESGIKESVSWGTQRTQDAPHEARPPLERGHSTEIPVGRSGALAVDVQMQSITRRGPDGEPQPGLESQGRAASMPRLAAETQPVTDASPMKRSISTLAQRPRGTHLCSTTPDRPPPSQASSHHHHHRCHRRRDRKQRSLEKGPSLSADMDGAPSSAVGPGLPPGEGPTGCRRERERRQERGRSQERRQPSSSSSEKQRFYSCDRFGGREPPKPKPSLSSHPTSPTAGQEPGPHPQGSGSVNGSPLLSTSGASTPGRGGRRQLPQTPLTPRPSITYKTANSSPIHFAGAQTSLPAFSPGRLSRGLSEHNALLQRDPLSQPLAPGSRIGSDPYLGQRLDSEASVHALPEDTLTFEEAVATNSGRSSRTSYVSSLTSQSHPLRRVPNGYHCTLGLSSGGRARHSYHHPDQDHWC
T1 sequence (P54284 whole entry partner): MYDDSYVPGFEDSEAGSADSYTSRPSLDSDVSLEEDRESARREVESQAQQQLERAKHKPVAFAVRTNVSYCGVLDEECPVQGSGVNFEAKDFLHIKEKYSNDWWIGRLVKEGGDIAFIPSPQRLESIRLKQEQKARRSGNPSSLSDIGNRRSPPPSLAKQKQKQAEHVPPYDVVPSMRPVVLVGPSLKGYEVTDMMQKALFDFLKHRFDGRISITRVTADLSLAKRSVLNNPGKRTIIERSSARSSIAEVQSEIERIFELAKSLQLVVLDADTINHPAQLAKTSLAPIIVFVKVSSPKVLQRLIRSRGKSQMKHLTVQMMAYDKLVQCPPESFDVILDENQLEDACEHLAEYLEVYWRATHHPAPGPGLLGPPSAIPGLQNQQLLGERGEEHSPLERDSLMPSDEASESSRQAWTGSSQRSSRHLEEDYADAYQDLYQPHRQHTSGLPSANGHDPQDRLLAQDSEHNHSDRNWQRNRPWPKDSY
T1 sequence (P54289 25-956 partner limits assumed): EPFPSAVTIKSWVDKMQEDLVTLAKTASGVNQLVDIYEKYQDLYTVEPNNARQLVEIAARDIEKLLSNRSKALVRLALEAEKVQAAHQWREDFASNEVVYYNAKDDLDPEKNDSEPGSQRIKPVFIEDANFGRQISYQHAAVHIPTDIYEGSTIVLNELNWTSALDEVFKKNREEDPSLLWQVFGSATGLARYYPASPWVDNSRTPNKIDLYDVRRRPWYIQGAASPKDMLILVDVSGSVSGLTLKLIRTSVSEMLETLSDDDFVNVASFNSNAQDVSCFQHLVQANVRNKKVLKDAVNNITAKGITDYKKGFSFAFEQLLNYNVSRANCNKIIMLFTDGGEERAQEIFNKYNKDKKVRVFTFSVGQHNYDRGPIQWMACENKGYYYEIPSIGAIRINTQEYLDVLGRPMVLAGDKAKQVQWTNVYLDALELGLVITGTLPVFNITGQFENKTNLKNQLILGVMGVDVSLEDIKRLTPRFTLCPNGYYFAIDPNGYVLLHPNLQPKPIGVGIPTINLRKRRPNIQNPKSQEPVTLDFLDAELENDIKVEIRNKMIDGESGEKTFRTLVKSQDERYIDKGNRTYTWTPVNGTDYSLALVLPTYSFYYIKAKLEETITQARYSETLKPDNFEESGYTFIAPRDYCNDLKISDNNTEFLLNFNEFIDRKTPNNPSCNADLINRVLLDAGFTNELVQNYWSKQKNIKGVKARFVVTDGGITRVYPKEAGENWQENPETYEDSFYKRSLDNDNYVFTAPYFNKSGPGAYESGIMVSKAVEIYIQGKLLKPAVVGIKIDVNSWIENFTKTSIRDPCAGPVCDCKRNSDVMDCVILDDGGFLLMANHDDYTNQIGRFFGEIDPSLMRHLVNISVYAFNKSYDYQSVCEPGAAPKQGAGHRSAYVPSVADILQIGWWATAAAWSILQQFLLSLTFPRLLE
T1 sequence (P54289 957-1103 partner limits assumed): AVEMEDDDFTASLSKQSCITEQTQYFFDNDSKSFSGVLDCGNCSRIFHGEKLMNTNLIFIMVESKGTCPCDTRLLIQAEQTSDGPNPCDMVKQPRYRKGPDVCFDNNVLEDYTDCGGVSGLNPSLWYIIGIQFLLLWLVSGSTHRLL
Description: Cell maintenance and differentiation. Unless noted otherwise, cell culture reagents were purchased from Life Technologies of Rockville, Md. IMR32 cells (American Type Culture Collection, ATCC, Manassas, Va.) were routinely cultured in growth medium consisting of minimum essential medium containing 10% fetal bovine serum (FBS, Hyclone, Logan, Utah), 100 U/mL penicillin, 100 μg/mL streptomycin, 2 mM L-glutamine, 1 mM sodium pyruvate, and 1×MEM non-essential amino acids. 80-90% confluent flasks of cells were differentiated using the following differentiation medium: Growth medium plus 1 mM dibutyryl cyclic AMP (Sigma, St. Louis, Mo.), and 2.5 μM bromodeoxyuridine (Sigma). Cells were differentiated for 8 days by replacing differentiation medium every 2-3 days.
FLIPR Calcium Mobilization Assay for N-type Calcium Channel. One day prior to performing this assay, differentiated IMR32 cells were treated with 1×CellStripper, and seeded on poly-D-lysine-coated 96-well clear-bottom black plates (Becton Dickinson, Franklin Lakes, N.J.) at 200,000 cells/well. On the day of the assay, the cell plates were washed with IMR32 buffer (127 mM NaCl, 1 mM KCl, 2 mM MgCl2, 700 μM NaH2PO4, 5 mM CaCl2, 5 mM NaHCO3, 8 mM HEPES, 10 mM glucose, pH 7.4), then pre-stimulated with KCl and loaded as follows: 0.05 mL of IMR32 buffer, 0.05 mL of each compound tested diluted in IMR32 buffer containing 20 μM nitrendipine (Sigma), and 0.1 mL KCl dissolved in IMR32 buffer, plus Fluo-4 were added (3 μM final concentration, Molecular Probes, Eugene, Oreg.). Final test compound concentrations ranged from about 846 μM to about 17 μM, final nitrendipine concentration was 5 μM, and final KCl concentration was 90 mM. After 1 hour, the cells were washed twice with 0.05 mL of each compound tested in nitrendipine-containing IMR32 buffer (no KCl or Fluo-4), and then replaced with 0.1 mL of each compound tested in nitrendipine-containing IMR32 buffer. Plates were then transferred to a Fluorimetric Imaging Plate Reader (FLIPR^96, Molecular Devices, Inc., Sunnyvale, Calif.) for assay. The FLIPR measured basal Fluo-4 fluorescence for 315 seconds (i.e., 5 minutes and 15 seconds), then added 0.1 mL KCl agonist dissolved in IMR32 buffer and measured fluorescence for another 45 seconds. Final test compound concentrations on the cells after FLIPR read ranged from about 846 μM to about 17 μM, final nitrendipine concentration was 5 μM, and final KCl concentration was 90 mM. Data were collected over the entire time course and analyzed using Excel, Graph Pad Prism (version 3.02, Graph Pad, San Diego, Calif.), or Activity Base (version 5.1, IDBS, Parsippany, N.J.) software.

[2] = target: T2, L-type calcium channel (LTCC) (Rattus norvegicus, UniProt P22002); assay: FLIPR calcium mobilization assay for L-type calcium channel; type: cell-based; conditions: calcium mobilization in vitro assay, differentiated A7r5 cells
T2 construct: differentiated A7r5 cells were trypsinized, then seeded on tissue culture treated 96-well clear-bottom black plates; endogenous in cells; host or cells: A7r5 cells (ATCC), differentiated 8 days with dibutyryl cAMP
Description: A7r5 (ATCC) cells were maintained and routinely cultured in A7r5 growth medium consisting of Dulbecco's Modified Eagles Medium containing 10% FBS, 100 U/mL penicillin, 100 μg/mL streptomycin, 4 mM L-glutamine, and 0.15% sodium bicarbonate. 80-90% confluent flasks of cells were differentiated using the following differentiation medium: A7r5 Growth Medium plus 1 mM dibutyryl cyclic AMP (Sigma). Cells were differentiated for 8 days by replacing differentiation medium every 2-3 days.
FLIPR Calcium Mobilization Assay for L-type Calcium Channel. One day prior to performing this assay, differentiated A7r5 cells were trypsinized, then seeded on tissue culture treated 96-well clear-bottom black plates (Becton Dickinson, Franklin Lakes, N.J.) at a dilution of 1:1 from a confluent T150 cm^2 flask. On the day of the assay, the plates were washed with A7r5 wash buffer (127 mM NaCl, 2 mM MgCl2, 700 μM NaH2PO4, 5 mM CaCl2, 5 mM NaHCO3, 8 mM HEPES, 10 mM glucose, pH 7.4), then loaded with 0.1 mL of A7r5 wash buffer containing Fluo-4 (3 μM final concentration, Molecular Probes, Eugene, Oreg.). After 1 hour, the cells were washed with 0.1 mL A7r5 wash buffer and resuspended in 0.05 mL A7r5 assay buffer that was composed of A7r5 wash buffer plus 50 μM valinomycin (Sigma). Plates were then transferred to a FLIPR^96 for assay. The FLIPR measured basal Fluo-4 fluorescence for 15 seconds, then added 0.05 mL of each compound tested diluted in A7r5 assay buffer at final concentrations ranging from about […]. Fluo-4 fluorescence was then measured for 5 minutes. 0.1 mL KCl agonist dissolved in A7r5 assay buffer was then added to the cells to produce a final concentration of 90 mM KCl, and fluorescence was measured for another 45 seconds. Data were collected over the entire time course and analyzed using Excel, Graph Pad Prism, or Activity Base software.

SMILES	pIC50 [1]	pIC50 [2]
O=C1N(CCC(c2ccccc2)c2ccccc2)CCN1c1ccccc1 [1-(3,3-diphenylpropyl)-3-phenylimidazolidin-2-one]	5.36	4.70 to 5.00
O=c1n(CCCC(c2ccc(F)cc2)c2ccc(F)cc2)c2ccccc2n1Cc1ccccn1 [1-[4,4-Bis(4-fluorophenyl)butyl]-3-(pyridin-2-yl)methyl-1,3-dihydro-benzoimidazol-2-one]	6.09	5.33
O=C1N(CCCC(c2ccc(F)cc2)c2ccc(F)cc2)CCN1Cc1ccncc1 [1-[4,4-Bis(4-fluorophenyl)butyl]-3-(pyridin-4-ylmethyl)imidazolidin-2-one]	5.92	5.46
O=c1n(CCCC(c2ccc(F)cc2)c2ccc(F)cc2)c2ccccc2n1CCN1CCCCC1 [1-[4,4-Bis(4-fluorophenyl)butyl]-3-[2-(piperidin-1-yl)ethyl]-1,3-dihydro-benzoimidazol-2-one]	5.67	< 4.70
O=C1NCCN1CCCC(c1ccc(F)cc1)c1ccc(F)cc1 [1-[4,4-Bis(4-fluorophenyl)butyl]-imidazolidin-2-one]	5.43	–
O=C1N(CC=Cc2ccccc2)CCN1CCCC(c1ccc(F)cc1)c1ccc(F)cc1 [1-[4,4-bis(4-fluorophenyl)butyl]-3-(3-phenylprop-2-enyl)imidazolidin-2-one]	5.94	5.44
O=C1N(CCCC(c2ccc(F)cc2)c2ccc(F)cc2)CCN1CCN1CCCC1 [1-[4,4-bis(4-fluorophenyl)butyl]-3-[2-(pyrrolidin-1-yl)ethyl]imidazolidin-2-one]	5.87	5.45
O=C1N(CCCC(c2ccc(F)cc2)c2ccc(F)cc2)CCN1C1CC1 [1-[4,4-bis(4-fluorophenyl)butyl]-3-cyclopropylimidazolidin-2-one]	6.21	6.39
CN1CCN(CCCC(c2ccc(F)cc2)c2ccc(F)cc2)C1=O [1-[4,4-bis(4-fluorophenyl)butyl]-3-methylimidazolidin-2-one]	6.17	6.10
O=C(OCc1ccccc1)N1C(=O)N(CCCC(c2ccc(F)cc2)c2ccc(F)cc2)[C@H]2C[C@H]21 [2-[4,4-Bis(4-fluorophenyl)butyl]-4-benzyloxycarbonyl-2,4-diaza-bicyclo[3.1.0]hexan-3-one]	6.47	5.48
